The values below come from US12509444B2, “Compounds and methods for CD73 modulation and indications therefor” (Plexxikon Inc., priority 2019, dated 2025).

Molecules are shown by their SMILES.

Experiment [1] deals with T1, Human CD73 (amino acid residues 27-549) (Homo sapiens, UniProt P21589).
T1 construct: Human CD73 (amino acid residues 27-549); His tag (N); made in house; host or cells: E. coli
T1 sequence (P21589 27-549): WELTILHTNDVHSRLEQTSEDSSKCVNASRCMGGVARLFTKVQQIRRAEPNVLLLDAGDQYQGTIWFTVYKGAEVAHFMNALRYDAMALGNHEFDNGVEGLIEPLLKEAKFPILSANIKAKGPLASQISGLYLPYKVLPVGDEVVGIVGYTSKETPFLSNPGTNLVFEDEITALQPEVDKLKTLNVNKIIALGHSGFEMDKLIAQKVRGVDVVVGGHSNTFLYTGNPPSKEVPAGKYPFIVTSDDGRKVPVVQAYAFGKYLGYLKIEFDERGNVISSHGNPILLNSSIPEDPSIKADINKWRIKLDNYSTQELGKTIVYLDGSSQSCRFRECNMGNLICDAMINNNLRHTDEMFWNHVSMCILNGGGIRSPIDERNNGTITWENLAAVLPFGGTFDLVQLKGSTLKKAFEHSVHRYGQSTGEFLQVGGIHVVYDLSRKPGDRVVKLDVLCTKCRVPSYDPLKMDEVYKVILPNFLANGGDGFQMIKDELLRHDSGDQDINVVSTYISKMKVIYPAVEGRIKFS
The experiment in a line: CD73 enzymatic assay (luciferase-based indirect assay, CellTiter-Glo). Format: biochemical. The note with it: 0.4 nM CD73, 150 μM AMP, 1 hour at room temperature. Summed up:
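His-tagged human CD73 (27-549) from E. coli, 0.4 nM, with 150 μM AMP in 50 mM HEPES pH 7.4, 0.01% Tween 20; 1 h at room temperature. AMP remaining read by CellTiter-Glo 2.0 luminescence with 1 μM final ATP after 30 min. IC50 from nonlinear regression of % inhibition.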

The target of a further experiment is T2, human CD73 (Homo sapiens, UniProt P21589).
T2 construct: expressed in transfected cells
T2 sequence (P21589 27-549): T1 sequence (P21589 27-549)
Briefly: Inhibitor activity against CD73 in cell based assay (CD73 expressing CHO-K1 cells). The note with it: CHO-K1 cells expressing human CD73, 150 μM AMP, 4 hours of incubation; read-out: CHO-K1 CELL VARIANT: CD73 IC50. Summed up:
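Stably transfected CHO-K1 cells expressing human CD73 (1×10^4/well) incubated 4 h with compound (8-point 1:3 titration, top 10 μM final, 0.2% DMSO) and 150 μM AMP. Residual AMP in supernatant measured by CellTiter-Glo luminescence with 1 μM ATP after 30 min at room temperature; IC50 by nonlinear regression of percent inhibition vs high/low controls.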

`NC(=O)[C@H]1CC[C@@H](NC(=O)O[C@@H]2CCN(c3cn[nH]c(=O)c3Cl)C2)CC1` [P-0181, (R)-1-(5-chloro-6-oxo-1,6-dihydropyridazin-4-yl)pyrrolidin-3-yl ((1s,4S)-4-carbamoylcyclohexyl) carbamate]: the IC50 (in experiment [1]; at human CD73) was 0.001 to 10 µM each time.
For `CCCNC(=O)[C@H]1CC[C@@H](NC(=O)O[C@@H]2CCN(c3cn[nH]c(=O)c3Cl)C2)CC1` [P-0182, (R)-1-(5-chloro-6-oxo-1,6-dihydropyridazin-4-yl)pyrrolidin-3-yl ((1s,4S)-4-(propylcarbamoyl)cyclohexyl) carbamate], the 50% inhibitory concentration (IC50) (in experiment [1]; on human CD73) was 0.001 to 10 µM in each case.
`O=C(N[C@H]1CC[C@@H](C(=O)Nc2ccccc2)CC1)O[C@@H]1CCN(c2cn[nH]c(=O)c2Cl)C1` [P-0183, (R)-1-(5-chloro-6-oxo-1,6-dihydropyridazin-4-yl)pyrrolidin-3-yl ((1s,4S)-4-(phenylcarbamoyl)cyclohexyl) carbamate]: the IC50 (in experiment [1]; at human CD73) was 0.001 to 10 µM in each case.
For the compound `O=C(N[C@H]1CC[C@H](NC(=O)c2ccccc2)CC1)O[C@@H]1CCN(c2cn[nH]c(=O)c2Cl)C1` [P-0184, (R)-1-(5-chloro-6-oxo-1,6-dihydropyridazin-4-yl)pyrrolidin-3-yl ((1r,4R)-4-benzamidocyclohexyl) carbamate], the 50% inhibitory concentration (IC50) (in experiment [1]; at human CD73) was 0.001 to 10 µM in each case.
For `O=C(N[C@H]1CC[C@@H](NS(=O)(=O)c2ccc(F)cc2)CC1)O[C@@H]1CCN(c2cn[nH]c(=O)c2Cl)C1` [P-0185, (R)-1-(5-chloro-6-oxo-1,6-dihydropyridazin-4-yl)pyrrolidin-3-yl ((1s,4S)-4-((4-fluorophenyl)sulfonamido)cyclohexyl)carbamate], the half-inhibitory concentration (IC50) (in experiment [1]; on human CD73) was 0.001 to 10 µM each time.
As for `O=C(N[C@H]1CC[C@@H](NC(=O)c2ccccc2)CC1)O[C@@H]1CCN(c2cn[nH]c(=O)c2Cl)C1` [P-0186, (R)-1-(5-chloro-6-oxo-1,6-dihydropyridazin-4-yl)pyrrolidin-3-yl ((1s,4S)-4-benzamidocyclohexyl) carbamate], the IC50 (in experiment [1]; on human CD73) was 0.001 to 10 µM each time.
For the compound `COC(=O)[C@H]1CC[C@H](NC(=O)O[C@@H]2CCN(c3cn[nH]c(=O)c3Cl)C2)CC1` [P-0187, methyl (1R,4r)-4-(((((R)-1-(5-chloro-6-oxo-1,6-dihydropyridazin-4-yl)pyrrolidin-3-yl)oxy)carbonyl)amino) cyclohexane-1-carboxylate], the IC50 (in experiment [1]; at human CD73) was 0.001 to 10 µM throughout.
With `COC(=O)[C@H]1C[C@H](NC(=O)O[C@@H]2CCN(c3cn[nH]c(=O)c3Cl)C2)C1` [P-0188, methyl (1R,3r)-3-(((((R)-1-(5-chloro-6-oxo-1,6-dihydropyridazin-4-yl)pyrrolidin-3-yl)oxy)carbonyl)amino) cyclobutane-1-carboxylate], the concentration for half-maximal inhibition (IC50) (in experiment [1]; at human CD73) was 0.001 to 10 µM each time.
On to `O=C(Nc1ccc(F)cc1)N[C@H]1CC[C@@H](NC(=O)O[C@@H]2CCN(c3cn[nH]c(=O)c3Cl)C2)CC1` [P-0189, (R)-1-(5-chloro-6-oxo-1,6-dihydropyridazin-4-yl)pyrrolidin-3-yl ((1s,4S)-4-(3-(4-fluorophenyl)ureido)cyclohexyl)carbamate], for which the IC50 (in experiment [1]; on human CD73) was 0.001 to 10 µM each time.
Consider `O=C(N[C@H]1CC[C@H](C(=O)O)CC1)O[C@@H]1CCN(c2cn[nH]c(=O)c2Cl)C1` [P-0190, (1R,4r)-4-(((((R)-1-(5-chloro-6-oxo-1,6-dihydropyridazin-4-yl)pyrrolidin-3-yl)oxy)carbonyl)amino) cyclohexane-1-carboxylic acid], for which the IC50 fell in the range of 0.001 to 10 µM in experiment [1] and 10 to 100 µM on human CD73.
On the same counts, the results for `CCCNC(=O)[C@H]1CC[C@H](NC(=O)O[C@@H]2CCN(c3cn[nH]c(=O)c3Cl)C2)CC1` [P-0191, (R)-1-(5-chloro-6-oxo-1,6-dihydropyridazin-4-yl)pyrrolidin-3-yl ((1r,4R)-4-(propylcarbamoyl)cyclohexyl) carbamate] are 0.001 to 10 µM and 0.001 to 10 µM.
With `O=C(N[C@H]1CC[C@H](C(=O)NC2CC2)CC1)O[C@@H]1CCN(c2cn[nH]c(=O)c2Cl)C1` [P-0192, (R)-1-(5-chloro-6-oxo-1,6-dihydropyridazin-4-yl)pyrrolidin-3-yl ((1r,4R)-4-(cyclopropylcarbamoyl)cyclohexyl)carbamate], the IC50 (in experiment [1]; at human CD73) was 0.001 to 10 µM each time.
Take `CCN(C)C(=O)[C@H]1CC[C@H](NC(=O)O[C@@H]2CCN(c3cn[nH]c(=O)c3Cl)C2)CC1` [P-0193, (R)-1-(5-chloro-6-oxo-1,6-dihydropyridazin-4-yl)pyrrolidin-3-yl ((1r,4R)-4-(ethyl(methyl)carbamoyl)cyclohexyl)carbamate]: the IC50 (in experiment [1]; on human CD73) was 0.001 to 10 µM each time.
Take `O=C(N[C@H]1CC[C@H](C(=O)Nc2ccccc2)CC1)O[C@@H]1CCN(c2cn[nH]c(=O)c2Cl)C1` [P-0194, (R)-1-(5-chloro-6-oxo-1,6-dihydropyridazin-4-yl)pyrrolidin-3-yl ((1r,4R)-4-(phenylcarbamoyl)cyclohexyl) carbamate]: the IC50 (in experiment [1]; at human CD73) was 0.001 to 10 µM in each case.
As for `O=C(N[C@H]1CC[C@@H](NC(=O)c2ccc(F)cc2)CC1)O[C@@H]1CCN(c2cn[nH]c(=O)c2Cl)C1` [P-0195, (R)-1-(5-chloro-6-oxo-1,6-dihydropyridazin-4-yl)pyrrolidin-3-yl ((1s,4S)-4-(4-fluorobenzamido)cyclohexyl) carbamate], the concentration for half-maximal inhibition (IC50) (in experiment [1]; at human CD73) was 0.001 to 10 µM each time.
`CC(=O)N[C@H]1CC[C@@H](NC(=O)O[C@@H]2CCN(c3cn[nH]c(=O)c3Cl)C2)CC1` [P-0196, (R)-1-(5-chloro-6-oxo-1,6-dihydropyridazin-4-yl)pyrrolidin-3-yl ((1s,4S)-4-acetamidocyclohexyl)carbamate]: the IC50 (in experiment [1]; at human CD73) was 0.001 to 10 µM in each case.
On to `O=C(NC1CCCCC1)N[C@H]1CC[C@@H](NC(=O)O[C@@H]2CCN(c3cn[nH]c(=O)c3Cl)C2)CC1` [P-0197, (R)-1-(5-chloro-6-oxo-1,6-dihydropyridazin-4-yl)pyrrolidin-3-yl ((1s,4S)-4-(3-cyclohexylureido)cyclohexyl) carbamate], for which the concentration for half-maximal inhibition (IC50) (in experiment [1]; at human CD73) was 0.001 to 10 µM each time.
Consider `O=C(NC1CC2(C1)CN(C(=O)Nc1ccc(F)cc1)C2)O[C@@H]1CCN(c2cn[nH]c(=O)c2Cl)C1` [P-0198, (R)-1-(5-chloro-6-oxo-1,6-dihydropyridazin-4-yl)pyrrolidin-3-yl (2-((4-fluorophenyl)carbamoyl)-2-azaspiro[3.3]heptan-6-yl)carbamate], for which the IC50 was in the range of 0.001 to 10 µM in experiment [1] and 10 to 100 µM on human CD73.
Take `CCCNC(=O)[C@H]1C[C@H](NC(=O)O[C@@H]2CCN(c3cn[nH]c(=O)c3Cl)C2)C1` [P-0199, (R)-1-(5-chloro-6-oxo-1,6-dihydropyridazin-4-yl)pyrrolidin-3-yl ((1r,3R)-3-(propylcarbamoyl)cyclobutyl) carbamate]: the IC50 fell in the range of 0.001 to 10 µM in experiment [1] and 10 to 100 µM at human CD73.
`O=C(N[C@H]1C[C@H](C(=O)Nc2ccccc2)C1)O[C@@H]1CCN(c2cn[nH]c(=O)c2Cl)C1` [P-0200, (R)-1-(5-chloro-6-oxo-1,6-dihydropyridazin-4-yl)pyrrolidin-3-yl ((1r,3R)-3-(phenylcarbamoyl)cyclobutyl) carbamate]: the IC50 (in experiment [1]; at human CD73) was 0.001 to 10 µM throughout.

The IC50 is the point on the concentration scale where inhibition reaches its midpoint.
